# According to patent publication US9708312B2, “Dihydropyrimidinoisoquinolinones and pharmaceutical compositions thereof for the treatment of inflammatory disorders (GPR84 antagonists)” (GALAPAGOS NV, priority 2012, dated 2017):
# Target: T1, GPR84 (Homo sapiens, UniProt Q9NQS5)
# T1 construct: expressed in transfected cells
# Experiment: GPR84 [35S]GTPγS binding assay, HEPES buffer
# Format: biochemical
# Conditions: 3,3′ di indolylmethane at EC80, membranes from stable cell line over expressing GPR84
# Procedure, shortened: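 Membranes from a stable GPR84-overexpressing cell line (20 μg/well), pre-incubated with 0.1 μM GDP for 15 min at 4° C, mixed with 0.1 nM [35S]GTPγS and WGA SpA beads in 20 mM HEPES pH 7.4, 5 mM MgCl2, 250 mM NaCl, 0.05% BSA, 75 ug/mL saponin. Incubated 90 min at room temperature; scintillation proximity read after centrifugation.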
# T1 sequence (Q9NQS5 whole entry): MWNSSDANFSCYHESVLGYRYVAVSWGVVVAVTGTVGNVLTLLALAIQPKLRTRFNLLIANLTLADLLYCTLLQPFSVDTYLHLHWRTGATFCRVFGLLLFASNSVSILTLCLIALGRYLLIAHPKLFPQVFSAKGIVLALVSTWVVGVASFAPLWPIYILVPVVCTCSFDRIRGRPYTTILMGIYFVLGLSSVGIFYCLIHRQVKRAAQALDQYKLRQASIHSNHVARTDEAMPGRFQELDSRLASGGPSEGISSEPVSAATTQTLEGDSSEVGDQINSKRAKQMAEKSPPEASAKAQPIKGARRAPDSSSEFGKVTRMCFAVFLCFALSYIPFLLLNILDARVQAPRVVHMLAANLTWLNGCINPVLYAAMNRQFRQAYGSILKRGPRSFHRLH
row,IC50,SMILES
1,100 to 500 nM,"O=C(COc1ccc2c(c1)CCn1c-2cc(OCC2COc3ccccc3O2)nc1=O)N1CCCC1 (centres unmarked) [compound 74, 2-(2,3-dihydro-benzo[1,4]dioxin-2-ylmethoxy)-9-(2-oxo-2-pyrrolidin-1-yl-ethoxy)-6,7-dihydro-pyrimido[6,1-a]isoquinolin-4-one]"
2,100 to 500 nM,O=c1nc(OC[C@@H]2COc3ncccc3O2)cc2n1CCc1cc(OCc3ncco3)ccc1-2 [compound 190]

# Target: T1, GPR84
# Experiment: GPR84 [35S]GTPγS binding assay, Tris buffer (alternative)
# Format: biochemical
# Conditions: 3,3′ di indolylmethane at EC80, membranes from stable cell line over expressing GPR84, read-out: Alternative GPR84 assay GTPγS IC50 (GPR84-2)
# Method: 1.1. Cell Based Assay: GTp-γ S Binding Assay.
# The following assay can be used for determination of GPR84 activation. The [^35S]GTPγS binding assay measures the level of G protein activation following agonist occupation of a GPCR, by determining the binding of the non-hydrolysable analog [^35S]GTPγS to Gα subunits.
# Alternatively, the assay is performed in a 96 well plate where the following reagents are added. First 50 μL compound is added into the assay plate, followed by addition of 20 μL 3,3′ di indolylmethane at EC80 concentration (concentration which gives 80% of the activity of GPR84). In a last step, 30 μL of a mixture consisting of membranes-GTPγS-SpA beads is added [mixture consists of 20 μg/well membranes derived from stable cell line over expressing GPR84 (membranes are pre-incubated with 0.1 μM GDP for 15 min at 4° C.), 0.1 nM [^35S]GTPγS (Perkin Elmer, NEG030) and 0.5 mg/well PVT-WGA SpA beads (Perkin Elmer, RPNQ0001)]. All components are diluted in assay buffer containing 20 mM Tris pH 7.5; 5 mM MgCl2; 250 mM NaCl; 0.05% BSA; 75 ug/mL saponin Reactions are incubated for 90 min at room temperature followed by centrifugation at 2000 rpm during 15 min. Plates are read on a Topcount reader (Perkin Elmer) immediately after centrifugation (readout time, 1 min/well).
row,IC50,SMILES
1,500 to 1000 nM,"CC(C)(C)C#Cc1ccc2c(c1)CCn1c-2cc(OCC2CCCO2)nc1=O (centres unmarked) [compound 120, 9-(3,3-dimethyl-but-1-ynyl)-2-(tetrahydro-furan-2-ylmethoxy)-6,7-dihydro-pyrimido[6,1-a]isoquinolin-4-one]"
2,0.01 to 100 nM,"O=c1nc(OCC2COc3ncccc3O2)cc2n1CCc1cc(-c3ccc4[nH]ncc4c3)ccc1-2 (centres unmarked) [compound 127, 2-(2,3-Dihydro-[1,4]dioxino[2,3-b]pyridin-2-ylmethoxy)-9-(1H-indazol-5-yl)-6,7-dihydro-pyrimido[6,1-a]isoquinolin-4-one]"
3,0.01 to 100 nM,"CC(C)(C)C#Cc1ccc2c(c1)CCn1c-2cc(OCC2COc3ncccc3O2)nc1=O (centres unmarked) [compound 144, 2-(2,3-dihydro-[1,4]dioxino[2,3-b]pyridin-2-ylmethoxy)-9-(3,3-dimethyl-but-1-ynyl)-6,7-dihydro-pyrimido[6,1-a]isoquinolin-4-one]"
4,100 to 500 nM,"COc1ccc(-c2ccc3c(c2)CCn2c-3cc(OCC3CCCO3)nc2=O)cn1 (centres unmarked) [compound 110, 9-(6-methoxy-pyridin-3-yl)-2-(tetrahydro-furan-2-ylmethoxy)-6,7-dihydro-pyrimido[6,1-a]isoquinolin-4-one]"
5,0.01 to 100 nM,"O=c1nc(OCC2COc3ncccc3O2)cc2n1CCc1cc(-c3cccnc3)ccc1-2 (centres unmarked) [compound 124, 2-(2,3-Dihydro-[1,4]dioxino[2,3-b]pyridin-2-ylmethoxy)-9-pyridin-3-yl-6,7-dihydro-pyrimido[6,1-a]isoquinolin-4-one]"
6,0.01 to 100 nM,"Cc1noc(COc2ccc3c(c2)CCn2c-3cc(OCC3COc4ncccc4O3)nc2=O)n1 (centres unmarked) [compound 135, 2-(2,3-dihydro-[1,4]dioxino[2,3-b]pyridin-2-ylmethoxy)-9-(3-methyl-[1,2,4]oxadiazol-5-ylmethoxy)-6,7-dihydro-pyrimido[6,1-a]isoquinolin-4-one]"

# Tested on: human neutrophils
# Experiment: Human neutrophil migration assay (embelin-induced chemotaxis)
# Format: cell-based
# Conditions: not given
# Method: 2.1. Human Neutrophil Migration Assay
# The effect of agonists or antagonists for GPR84 can therefore be assayed in a neutrophil migration test. In the neutrophil migration assay, neutrophils, freshly isolated from buffy coats from human volunteers, are treated with a compound for 30 min Subsequently, the neutrophils are transferred to the upper wells of a Corning HTS transwell 96 permeable support system, of which the lower wells are filled with a embelin solution at EC80 (concentration which gives 80% of the activity of GPR84). After 1 h of incubation, migration of the neutrophils towards embelin in the lower compartment can be quantified by measuring the ATP-content of the lower wells using the ATPlite luminescence ATP detection assay system (Perkin Elmer, Cat. No.: 436110).
# 2.1.1 Isolation of Neutrophils from Human Buffy Coat
# A human buffy coat is diluted with an equal volume of ice cold DPBS. 20 mL of the diluted buffy coat is gently mixed with 4 mL of ACD buffer (140 mM citric acid, 200 mM sodium citrate and 220 mM dextrose). Then, 12 mL of the 6% dextran/0.9% NaCl solution (15 g dextran T2000 and 2.25 g NaCl dissolved in 250 mL H2O) is added to the mixture and the samples are inverted gently up to 20 times. The total volume was transferred to a new recipient and incubated at room temperature for 1 h for complete separation of the two phases to occur. The yellowish supernatant is then transferred to a clean centrifugation tube and centrifuged for 12 min at 1300 rpm and 4° C. After centrifugation, the supernatant is discarded and the remaining cell pellet is rapidly resuspended in 12 mL of ice-cold H2O for red blood cell lysis to occur. After 20 seconds, 4 mL of ice-cold 0.6 M KCl is added. Samples are mixed carefully and centrifuged for 6 min at 1300 rpm, 4° C. The supernatant is discarded and the red blood cell lysis procedure is repeated one more time. Subsequently, the cell pellet is resuspended in 4 mL of DPBS and layered over 5 mL of Lymphoprep (Nycomed Pharma, Cat. No.: 1114545) in a 15 mL centrifuge tube. After centrifugation for 12 min at 1300 rpm, 4° C., the supernatant is removed and the cell pellet, containing the neutrophils, is resuspended in 25 mL chemotaxis buffer (RPMI 1640 medium, supplemented with 10 mM HEPES; freshly made for each experiment)
# A cell suspension of 8.9×10^6 cells per milliliter is prepared. 20 μL of compound solution in chemotaxis buffer is added to 180 μL cell suspension. The mixture is incubated at 37° C. for 30 min with intermediate resuspension of the cells after 15 min Following this, 70 μL cell suspension is transferred to the upper compartment of a Corning HTS transwell 96 permeable support system with 5.0 μm pore size polycarbonate membrane (Corning, Cat. No.: 3387). The receiver well of the transwell system is then filled with 200 μL chemotaxis buffer containing compound and chemotactic agent (embelin). After incubation at 37° C. in 5% CO2 for 1 h, the upper plate of the transwell system is removed and the cell suspension in the receiver plate is transferred to a 96-well V-bottom plate. 50 μL of DPBS is added to the receiver plate to prevent remaining cells from drying out. The V-bottom plate is centrifuged for 6 min at 1500 rpm. The supernatant is removed and the cells are resuspended in 50 μL DPBS. The cells are then transferred back to the receiver plate of the transwell system. After this, 100 μL ATPlite solution (Perkin Elmer, Cat. No: 436110) was added to the cells. The plate is incubated for 10 min in the dark, while shaking. […] of cell lysate is then transferred to a white 96-well plate and luminescence is measured. The detected luminescent signal is considered as linearely related to the number of cells having migrated from the upper well to the receiver well.
row,SMILES,neutrophil chemotaxis induced by GPR84 agonists
1,"c1ccc2c(Cc3c[nH]c4ccccc34)c[nH]c2c1 [3,3′ di indolylmethane, reference compound]",induce neutrophil chemotaxis
2,"CCCCCCCCCC(=O)[O-].[Na+] [sodiumdecanoate, reference compound]",induce neutrophil chemotaxis

# Same assay, conditions: Neutrophil; neutrophils from human buffy coats; embelin at EC80
row,IC50,SMILES
1,0.01 to 100 nM,"O=c1nc(OCC2CCCO2)cc2n1CCc1cc(OCCOc3ccccc3)ccc1-2 (centres unmarked) [compound 15, 9-(2-phenoxy-ethoxy)-2-(tetrahydro-furan-2-ylmethoxy)-6,7-dihydro-pyrimido[6,1-a]isoquinolin-4-one]"
2,0.01 to 100 nM,"O=c1nc(OCC2COc3ncccc3O2)cc2n1CCc1cc(C#CCNCc3ccccc3)ccc1-2 (centres unmarked) [compound 193, 9-(3-benzylamino-prop-1-ynyl)-2-(2,3-dihydro-[1,4]dioxino[2,3-b]pyridin-2-ylmethoxy)-6,7-dihydro-pyrimido[6,1-a]isoquinolin-4-one]"
3,0.01 to 100 nM,"O=c1nc(OCC2COc3ncccc3O2)cc2n1CCc1cc(-c3cn[nH]c3)ccc1-2 (centres unmarked) [compound 180, 2-(2,3-dihydro-[1,4]dioxino[2,3-b]pyridin-2-ylmethoxy)-9-(1H-pyrazol-4-yl)-6,7-dihydro-pyrimido[6,1-a]isoquinolin-4-one]"
4,0.01 to 100 nM,"O=c1nc(OCC2COc3ccccc3O2)cc2n1CCc1cc(OCc3nnn[nH]3)ccc1-2 (centres unmarked) [compound 76, 2-(2,3-dihydro-benzo[1,4]dioxin-2-ylmethoxy)-9-(1H-tetrazol-5-ylmethoxy)-6,7-dihydro-pyrimido[6,1-a]isoquinolin-4-one]"
5,0.01 to 100 nM,"O=C(COc1ccc2c(c1)CCn1c-2cc(OCC2COc3ccccc3O2)nc1=O)N1CCCC1 (centres unmarked) [compound 74, 2-(2,3-dihydro-benzo[1,4]dioxin-2-ylmethoxy)-9-(2-oxo-2-pyrrolidin-1-yl-ethoxy)-6,7-dihydro-pyrimido[6,1-a]isoquinolin-4-one]"
6,0.01 to 100 nM,"CCC(O)C#Cc1ccc2c(c1)CCn1c-2cc(OCC2COc3ncccc3O2)nc1=O (centres unmarked) [compound 182, 2-(2,3-dihydro-[1,4]dioxino[2,3-b]pyridin-2-ylmethoxy)-9-(3-hydroxy-pent-1-ynyl)-6,7-dihydro-pyrimido[6,1-a]isoquinolin-4-one]"
7,0.01 to 100 nM,"CCCC(O)C#Cc1ccc2c(c1)CCn1c-2cc(OCC2COc3ncccc3O2)nc1=O (centres unmarked) [compound 183, 2-(2,3-dihydro-[1,4]dioxino[2,3-b]pyridin-2-ylmethoxy)-9-(3-hydroxy-hex-1-ynyl)-6,7-dihydro-pyrimido[6,1-a]isoquinolin-4-one]"
8,0.01 to 100 nM,O=c1nc(OC[C@@H]2COc3ncccc3O2)cc2n1CCc1cc(OCc3ncco3)ccc1-2 [compound 190]
9,0.01 to 100 nM,"O=c1nc(OCC2COc3ncccc3O2)cc2n1CCc1cc(COC3COC3)ccc1-2 (centres unmarked) [compound 202, 2-(2,3-dihydro-[1,4]dioxino[2,3-b]pyridin-2-ylmethoxy)-9-(oxetan-3-yloxymethyl)-6,7-dihydro-pyrimido[6,1-a]isoquinolin-4-one]"
10,0.01 to 100 nM,"O=c1nc(OCC2CCCO2)cc2n1CCc1cc(OCC3COc4ccccc4O3)ccc1-2 (centres unmarked) [compound 18, 9-(2,3-dihydro-benzo[1,4]dioxin-2-ylmethoxy)-2-(tetrahydro-furan-2-ylmethoxy)-6,7-dihydro-pyrimido[6,1-a]isoquinolin-4-one]"
11,0.01 to 100 nM,"CC(C)C(O)C#Cc1ccc2c(c1)CCn1c-2cc(OCC2COc3ncccc3O2)nc1=O (centres unmarked) [compound 188, 2-(2,3-dihydro-[1,4]dioxino[2,3-b]pyridin-2-ylmethoxy)-9-(3-hydroxy-4-methyl-pent-1-ynyl)-6,7-dihydro-pyrimido[6,1-a]isoquinolin-4-one]"
12,0.01 to 100 nM,"O=c1nc(OCC2COc3ncccc3O2)cc2n1CCc1cc(OCc3ccccn3)ccc1-2 (centres unmarked) [compound 91, 2-(2,3-dihydro-[1,4]dioxino[2,3-b]pyridin-2-ylmethoxy)-9-(pyridin-2-ylmethoxy)-6,7-dihydro-pyrimido[6,1-a]isoquinolin-4-one]"
13,0.01 to 100 nM,"O=c1nc(OCC2COc3ncccc3O2)cc2n1CCc1cc(OCc3ncco3)ccc1-2 (centres unmarked) [compound 86, 2-(2,3-dihydro-[1,4]dioxino[2,3-b]pyridin-2-ylmethoxy)-9-(oxazol-2-ylmethoxy)-6,7-dihydro-pyrimido[6,1-a]isoquinolin-4-one]"
